Laboratory results: patent US20070231269A1, “Analgesics” (IONIX PHARMACEUTICALS LIMITED, priority 2002, published 2007)

Assay: Solubility of buprenorphine hydrochloride in pectin solutions (saturated solution, hplc)
Conditions: for solubility: 18 °C, thermodynamic from solid; for Buprenorphine detected: solubility, 20 mg/ml pectin, pH 3-6, 18° C., expressed as buprenorphine free base

With `CO[C@]12CCC3(C[C@@H]1[C@](C)(O)C(C)(C)C)[C@H]1Cc4ccc(O)c5c4[C@@]3(CCN1CC1CC1)[C@H]2O5` [Buprenorphine, 5α,7α(S)-17-(cyclopropylmethyl)-α-(1,1-dimethylethyl)-4,5-epoxy-18,19-dihydro-3-hydroxy-6-methoxy-α-methyl-6,14-ethenomorphinan-7-methanol] as the molecule, how does the solubility (aqueous with cosolvent or surfactant or cyclodextrin) read?
The solubility was > 10000 µg/mL.

What about the solubility (pH 4.5, aqueous with cosolvent or surfactant or cyclodextrin) of the same molecule?
The solubility was < 10000 µg/mL.

And the Buprenorphine detected (dextrose 0-50 mg/ml)?
The Buprenorphine detected was “not affected significantly”.

And the Buprenorphine detected (mannitol 0-50 mg/ml)?
The Buprenorphine detected was “not affected significantly”.
